Literature values as cited in PMC7395068, “The evolution of strategies to minimise the risk of human drug-induced liver injury (DILI) in drug discovery and development” (Archives of Toxicology, 2020).
Like-named read-outs stand apart in the source and are kept apart here. *1 amine or outer side, *2 acyl side, *3 side chain or, on linkers, in order; H or OH if unused. Where a SMILES comes first, the peptide text is derived from it. Bridges are numbered along the chain shown (N, C = ends). [ ]: non-standard residue; d: D form. The star is where a group is joined. hTyr(3S-OH,4S-OH,3'-OSO3H) = N[C@H](C(=O)O)[C@H](O)[C@@H](O)c1ccc(O)c(OS(=O)(=O)O)c1; Orn(4R-OH,5R-OH) = O=C([C@H](C[C@@H](O)[C@@H](O)N[*:3])N[*:1])[*:2]; Pro(3S-OH,4S-Me) = C[C@H]1CN[C@H](C(=O)O)[C@H]1O; X1 = CCCCCOc1ccc(-c2cc(-c3ccc(C(=O)*)cc3)no2)cc1; Gln(3R-OH) = NC(=O)C[C@@H](O)[C@H](N)C(=O)O; Hyp = O=C(O)[C@@H]1C[C@@H](O)CN1

Conditions: cited from earlier work
[1] = binary in vivo human DILI call, ref Chen 2016
[2] = human DILI, LTKB DILIrank category, ref Chen 2016
[3] = LTKB DILIrank category, ref Chen 2016
[4] = binary in vivo DILI call given beside the severity category, ref Chen 2016
[5] = human DILI concern category (LTKB DILIrank), ref Chen 2016
[6] = binary DILI call, ref Chen 2016

Compound | DILI +VE (5-8), DILI -VE (-4) (in vivo) | DILI severity category (in vivo) | DILI +VE (5-8), DILI -VE (-4) [4] | DILI severity category [5] | other results
CCN(CC)CCOC(=O)C1(C2CCCCC2)CCCCC1 [dicyclomine] | – | – | – | – | DILI +VE (5-8), DILI -VE (-4) [1]: -VE; DILI severity category [2]: vNo-DILI-Concern
CCc1c2c(nc3ccc(OC(=O)N4CCC(N5CCCCC5)CC4)cc13)-c1cc3c(c(=O)n1C2)COC(=O)[C@]3(O)CC [irinotecan] | +VE | vLess-DILI-Concern | – | – | –
CC(C)C[C@H]1C(=O)N2CCC[C@H]2[C@]2(O)O[C@](NC(=O)[C@@H]3C=C4c5cccc6[nH]c(Br)c(c56)C[C@H]4N(C)C3)(C(C)C)C(=O)N12 [bromocriptine] | – | – | – | – | DILI severity category [3]: vLess-DILI-Concern
NS(=O)(=O)c1cc2c(cc1C(F)(F)F)NC(Cc1ccccc1)NS2(=O)=O (centres unmarked) [bendroflumethiazide] | – | – | – | – | DILI severity category [3]: vLess-DILI-Concern
CCCCCCCCCC(=O)N[C@@H](Cc1c[nH]c2ccccc12)C(=O)N[C@H](CC(N)=O)C(=O)N[C@@H](CC(=O)O)C(=O)N[C@@H]1C(=O)NCC(=O)N[C@@H](CCCN)C(=O)N[C@@H](CC(=O)O)C(=O)N[C@H](C)C(=O)N[C@@H](CC(=O)O)C(=O)NCC(=O)N[C@H](CO)C(=O)N[C@@H]([C@H](C)CC(=O)O)C(=O)N[C@@H](CC(=O)c2ccccc2N)C(=O)O[C@@H]1C [daptomycin] | – | – | – | – | DILI +VE (5-8), DILI -VE (-4) [1]: +VE; DILI severity category [2]: vLess-DILI-Concern
etanercept | +VE | vLess-DILI-Concern | – | – | –
Cc1ccccc1N1C(=O)c2cc(S(N)(=O)=O)c(Cl)cc2NC1C (centres unmarked) [metolazone] | – | – | -VE | Ambiguous DILI-concern | –
enoxaparin | +VE | vLess-DILI-Concern | – | – | –
CC(C)(C)NCC(O)c1ccc(O)c(CO)c1 (centres unmarked) [salbutamol] | – | – | -VE | vNo-DILI-Concern | –
CCO[C@@H]1OC(=O)C[C@@H]1NC(=O)[C@@H]1CCCN2C(=O)CC[C@H](NC(=O)c3nccc4ccccc34)C(=O)N12 [pralnacasan] | – | – | +VE | vMost-DILI-Concern | –
vitamin e | -VE | – | – | – | –
CC1OC2(CS1)CN1CCC2CC1 (centres unmarked) [cevimeline] | – | – | – | – | DILI severity category [3]: Ambiguous DILI-concern; DILI +VE (5-8), DILI -VE (-4) [6]: -VE
CN[C@@H]1CCc2[nH]c3ccc(C(N)=O)cc3c2C1 [frovatriptan] | – | – | – | – | DILI +VE (5-8), DILI -VE (-4) [1]: -VE; DILI severity category [2]: vNo-DILI-Concern
C#C[C@]1(OC(C)=O)CC[C@H]2[C@@H]3CCC4=CC(=O)CC[C@@H]4[C@H]3CC[C@@]21C [norethindrone acetate] | – | – | -VE | vNo-DILI-Concern | –
CC(=O)CCCCn1c(=O)c2c(ncn2C)n(C)c1=O [pentoxifylline] | – | – | -VE | Ambiguous DILI-concern | –
lepirudin | -VE | Ambiguous DILI-concern | – | – | –
sargramostim | -VE | vNo-DILI-Concern | – | – | –
C#C[C@]1(O)CC[C@H]2[C@@H]3CCC4=CC(=O)CC[C@@H]4[C@H]3CC[C@@]21CC [levonorgestrel] | -VE | vNo-DILI-Concern | – | – | –
C[C@H](/C=C/[C@H](C)C(C)(C)O)[C@H]1CC[C@H]2/C(=C/C=C3C[C@@H](O)C[C@H](O)C3)CCC[C@]12C [paricalcitol] | – | – | -VE | Ambiguous DILI-concern | –
COCCCOc1ccnc(C[S+]([O-])c2nc3ccccc3[nH]2)c1C (centres unmarked) [rabeprazole] | – | – | +VE | vLess-DILI-Concern | –
Cn1c(CCCC(=O)O)nc2cc(N(CCCl)CCCl)ccc21 [bendamustine] | -VE | vNo-DILI-Concern | – | – | –
muromonab-cd3 | -VE | Ambiguous DILI-concern | – | – | –
CSCC[C@H](NC(=O)[C@H](Cc1c[nH]c2ccccc12)NC(=O)CCNC(=O)OC(C)(C)C)C(=O)N[C@@H](CC(=O)O)C(=O)N[C@@H](Cc1ccccc1)C(N)=O [pentagastrin] | -VE | vNo-DILI-Concern | – | – | –

Compound | DILI +VE (5-8), DILI -VE (-4) (in vivo) | DILI severity category (in vivo) | DILI +VE (5-8), DILI -VE (-4) [4] | DILI severity category [5] | other results
simethicone | -VE | vNo-DILI-Concern | – | – | –
O=C1Nc2ccc(Cl)cc2C(c2ccccc2)=NC1O (centres unmarked) [oxazepam] | -VE | Ambiguous DILI-concern | – | – | –
CCCCS(=O)(=O)N[C@@H](Cc1ccc(OCCCCC2CCNCC2)cc1)C(=O)O [tirofiban] | – | – | -VE | vNo-DILI-Concern | –
C=C1C[C@@H]2[C@H](CC[C@]3(C)C(=O)CC[C@@H]23)[C@@]2(C)C=CC(=O)C=C12 [exemestane] | – | – | – | – | DILI +VE (5-8), DILI -VE (-4) [1]: +VE; DILI severity category [2]: vMost-DILI-Concern
Cc1nnc(SCC2=C(C(=O)O)N3C(=O)[C@@H](NC(=O)Cn4cnnn4)[C@H]3SC2)s1 [cefazolin] | +VE | vLess-DILI-Concern | – | – | –
CN1C(=O)CC(C)(c2ccccc2)C1=O (centres unmarked) [methsuximide] | – | – | -VE | vNo-DILI-Concern | –
COc1ccc(Cc2nccc3cc(OC)c(OC)cc23)cc1OC [papaverine] | +VE | vMost-DILI-Concern | – | – | –
CN1CCCC(CN2c3ccccc3Sc3ccccc32)C1 (centres unmarked) [mepazine] | – | – | – | – | DILI +VE (5-8), DILI -VE (-4) [1]: +VE; DILI severity category [2]: vMost-DILI-Concern
C1N2CN3CN1CN(C2)C3 [methenamine hippurate] | – | – | -VE | Ambiguous DILI-concern | –
secretin | – | – | -VE | vNo-DILI-Concern | –
O=C(Oc1ccccc1C(=O)O)c1ccccc1O [salsalate] | – | – | +VE | vLess-DILI-Concern | –
CN1CCN(C2=Nc3ccccc3Oc3ccc(Cl)cc32)CC1 [loxapine] | -VE | Ambiguous DILI-concern | – | – | –
C/C1=C2/[N-][C@H]([C@H](CC(N)=O)[C@@]2(C)CCC(=O)NC[C@@H](C)OP(=O)([O-])O[C@H]2[C@@H](O)[C@@H](n3cnc4cc(C)c(C)cc43)O[C@@H]2CO)[C@]2(C)N=C(/C(C)=C3N=C(/C=C4N=C1[C@@H](CCC(N)=O)C\4(C)C)[C@@H](CCC(N)=O)[C@]\3(C)CC(N)=O)[C@@H](CCC(N)=O)[C@]2(C)CC(N)=O.[Co+3].[OH-] [hydroxocobalamin] | – | – | – | – | DILI +VE (5-8), DILI -VE (-4) [1]: -VE; DILI severity category [2]: Ambiguous DILI-concern
CCCCCOc1ccc(-c2cc(-c3ccc(C(=O)N[C@H]4C[C@@H](O)[C@@H](O)NC(=O)[C@@H]5[C@@H](O)[C@@H](C)CN5C(=O)[C@H]([C@H](O)CC(N)=O)NC(=O)[C@H]([C@H](O)[C@@H](O)c5ccc(O)c(OS(=O)(=O)O)c5)NC(=O)[C@@H]5C[C@@H](O)CN5C(=O)[C@H]([C@@H](C)O)NC4=O)cc3)no2)cc1 [micafungin] (X1-[Orn(4R-OH,5R-OH)]T[Hyp][hTyr(3S-OH,4S-OH,3'-OSO3H)][Gln(3R-OH)][Pro(3S-OH,4S-Me)]; lactam 1-C) | – | – | +VE | vMost-DILI-Concern | –
CCOC(=O)C1=C(COCCN)NC(C)=C(C(=O)OC)C1c1ccccc1Cl (centres unmarked) [amlodipine] | +VE | vLess-DILI-Concern | – | – | –
O=C(O)C[C@H](O)C[C@H](O)/C=C/c1c(C2CC2)nc2ccccc2c1-c1ccc(F)cc1 [pitavastatin] | – | – | -VE | Ambiguous DILI-concern | –
COc1ccc(CC2c3cc(OC)c(OC)cc3CC[N+]2(C)CCC(=O)OCCCCCOC(=O)CC[N+]2(C)CCc3cc(OC)c(OC)cc3C2Cc2ccc(OC)c(OC)c2)cc1OC (centres unmarked) [atracurium] | – | – | – | – | DILI severity category [3]: vNo-DILI-Concern; DILI +VE (5-8), DILI -VE (-4) [6]: -VE
adalimumab | +VE | vLess-DILI-Concern | – | – | –
CC(C)Nc1cccnc1N1CCN(C(=O)c2cc3cc(NS(C)(=O)=O)ccc3[nH]2)CC1 [delavirdine] | – | – | – | – | DILI +VE (5-8), DILI -VE (-4) [1]: -VE; DILI severity category [2]: Ambiguous DILI-concern
NC(=O)[C@@H]1CCCN1C(=O)[C@H](Cc1cnc[nH]1)NC(=O)[C@@H]1CCC(=O)N1 [protirelin] | -VE | vNo-DILI-Concern | – | – | –
CC(CN(C)C)CN1c2ccccc2CCc2ccccc21 (centres unmarked) [trimipramine] | – | – | -VE | Ambiguous DILI-concern | –
CCCCCCCCCC(=O)OC1(c2ccc(Cl)cc2)CCN(CCCC(=O)c2ccc(F)cc2)CC1 [haloperidol decanoate] | – | – | – | – | DILI +VE (5-8), DILI -VE (-4) [1]: -VE; DILI severity category [2]: Ambiguous DILI-concern
CC(S)C(=O)NCC(=O)O (centres unmarked) [tiopronin] | – | – | -VE | Ambiguous DILI-concern | –
